Measurements: US11149033B2, “Heteroaryl compound, enantiomer, diastereomer or pharmaceutically acceptable salt thereof, and antiviral composition containing same as active ingredient” (priority 2016, dated 2021)
Like-named read-outs stand apart in the source and are kept apart here.

Key:
[1] = test system: A/California/07/2009 (H1N1); assay: Antiviral activity (drug efficacy evaluation by concentration) against A/California/07/2009 (H1N1); type: cell-based, A type influenza virus; settings: Influenza A virus
A/Perth/16/2009 (H3N2) = assay: Antiviral activity (drug efficacy evaluation by concentration) against A/Perth/16/2009 (H3N2); type: cell-based, A type influenza virus; settings: Influenza A virus
B/Florida/04/2006 = assay: Antiviral activity (drug efficacy evaluation by concentration) against B/Florida/04/2006; type: cell-based, B type influenza virus
[2] = CC50, third EC50/CC50 column pair (c7), beside the EC50 of c6
[3] = CC50 B/Florida/04/2006, cytotoxicity in the B/Florida/04/2006 assay
[4] = H1N1, A/California/07/2009 (H1N1), read-out: EC50 A/California/07/2009 (H1N1)
[5] = H3N2, A/Perth/16/2009 (H3N2), read-out: EC50 A/Perth/16/2009 (H3N2)

Row | SMILES | CC50 (in vitro; CC50, beside the EC50 of c2) | CC50 (in vitro; CC50, beside the EC50 of c4) | CC50 (in vitro; [2]) | EC50 ([1]; H1N1, read-out: EC50) | EC50 (A/Perth/16/2009 (H3N2); H3N2, read-out: EC50) | melting point | CC50 (in vitro; [3]) | EC50 [1, 4] | EC50 (A/Perth/16/2009 (H3N2); [5]) | EC50 (B/Florida/04/2006) | EC50 (B/Florida/04/2006; read-out: EC50 B/Florida/04/2006, B/Florida/04/2006)
1 | Fc1ccc(/C=C/c2nnc(Nc3ccc(Br)c(F)c3)o2)c(Cl)c1 [Compound 160, (E)-N-(4-bromo-3-fluorophenyl)-5-(2-chloro-4-fluorostyryl)-1,3,4-oxadiazol-2-amine] | > 50 µM | > 50 µM | > 50 µM | > 50 µM | > 50 µM | 195.7 °C | – | – | – | – | –
2 | Cc1cccc(C)c1/C=C/c1nnc(Cc2ccc(Br)cc2)o1 [Compound 134, 2-(4-bromobenzyl)-5-(2,6-dimethylstyryl)-1,3,4-oxadiazole] | > 50 µM | > 50 µM | > 50 µM | > 50 µM | > 50 µM | – | – | – | – | – | –
3 | CC(C)c1ccccc1/C=C/c1nnc(Nc2ccc(Br)cc2)o1 [Compound 117, (E)-N-(4-bromophenyl)-5-(2-isopropylstyryl)-1,3,4-oxadiazol-2-amine] | > 50 µM | > 50 µM | – | 31.4 µM | 43.5 µM | 225.6 °C | – | – | – | – | –
4 | O=C(Nc1ccc(Br)cc1)c1nnc(SCc2ccccc2-c2ccccc2)o1 [Compound 72, 5-(([1,1′-biphenyl]-2-ylmethyl)thio)-N-(4-bromophenyl)-1,3,4-oxadiazole-2-carboxamide] | – | – | – | – | – | – | 25 µM | 0.73 µM | 23.5 µM | – | –
5 | Fc1cc(Nc2nnc(/C=C/c3ccccc3Br)o2)ccc1Br [Compound 88, (E)-N-(4-bromo-3-fluorophenyl)-5-(2-bromostyryl)-1,3,4-oxadiazol-2-amine] | > 50 µM | > 50 µM | > 50 µM | > 50 µM | > 50 µM | 225.1 °C | – | – | – | – | –
6 | Fc1ccc(/C=C/c2nnc(Cc3ccc(F)c(Cl)c3)o2)c(Cl)c1 [Compound 159, (E)-2-(3-chloro-4-fluorobenzyl)-5-(2-chloro-4-fluorostyryl)-1,3,4-oxadiazole] | > 50 µM | > 50 µM | > 50 µM | > 50 µM | 39.7 µM | 142.2 °C | – | – | – | – | –
7 | c1ccc(-c2nnc(SCc3ccccc3-c3ccccc3)o2)cc1 [Compound 43, 2-(([1,1′-biphenyl]-2-ylmethyl)thio)-5-phenyl-1,3,4-oxadiazole] | – | – | – | – | – | – | > 50 µM | > 50 µM | > 50 µM | – | –
8 | Fc1ccc(/C=C/c2nnc(Cc3cc(Cl)ccn3)o2)c(Cl)c1 [Compound 206, (E)-2-(2-chloro-4-fluorostyryl)-5-((4-chloropyridin-2-yl)methyl)-1,3,4-oxadiazole] | > 50 µM | > 50 µM | > 50 µM | – | 1.28 µM | – | – | – | – | 2.26 µM | –
9 | Cc1ccccc1CCc1nnc(Nc2ccc(Br)cc2)o1 [Compound 89, N-(4-bromophenyl)-5-(2-methylphenethyl)-1,3,4-oxadiazol-2-amine] | > 50 µM | > 50 µM | > 50 µM | > 50 µM | 48.4 µM | 153.5 °C | – | – | – | – | –
10 | Cc1ncccc1/C=C/c1nnc(Cc2cccc(Br)c2)o1 [Compound 204, (E)-2-(3-bromobenzyl)-5-(2-(2-methylpyridin-3-yl)vinyl)-1,3,4-oxadiazole] | > 50 µM | > 50 µM | > 50 µM | – | – | – | – | – | – | 2.5 µM | –
11 | Brc1ccc(Nc2nnc(/C=C/c3ccccc3Oc3ccccc3)o2)cc1 [Compound 125, (E)-N-(4-bromophenyl)-5-(2-phenoxystyryl)-1,3,4-oxadiazol-2-amine] | > 50 µM | > 50 µM | > 50 µM | 36.7 µM | > 50 µM | – | – | – | – | – | –
12 | Fc1ccc(/C=C/c2nnc(Cc3cccc(Cl)c3)o2)c(Cl)c1 [Compound 179, (E)-2-(2-chloro-4-fluorostyryl)-5-(3-chlorobenzyl)-1,3,4-oxadiazole] | > 50 µM | > 50 µM | > 50 µM | 0.632 µM | – | 104 °C | – | – | – | – | –
13 | O=C(c1cccc(-c2ccccc2)c1)c1nnc(Cc2ccc(Br)cc2)o1 [Compound 69, [1,1′-biphenyl]-3-yl(5-(4-bromobenzyl)-1,3,4-oxadiazol-2-yl)methanone] | – | – | – | – | – | 166.4 °C | > 50 µM | > 50 µM | 49.3 µM | – | –
14 | Cc1cccc(/C=C/c2nnc(Cc3ccc(Br)cc3)o2)c1C [Compound 150, 2-(4-bromobenzyl)-5-(2,3-dimethylstyryl)-1,3,4-oxadiazole] | > 50 µM | > 50 µM | > 50 µM | – | > 50 µM | 126.9 °C | – | – | – | – | –
15 | Brc1ccc(Nc2nnc(/C=C/c3ccccc3-c3ccccc3)o2)cc1 [Compound 124, (E)-5-(2-([1,1′-biphenyl]-2-yl)vinyl)-N-(4-bromophenyl)-1,3,4-oxadiazol-2-amine] | > 50 µM | > 50 µM | > 50 µM | – | > 50 µM | 239.3 °C | – | – | – | – | –
16 | CC(C)c1ccccc1/C=C/c1nc(Cc2ccc(Br)cc2)no1 [Compound 175, (E)-3-(4-bromobenzyl)-5-(2-isopropylstyryl)-1,2,4-oxadiazole] | > 50 µM | > 50 µM | > 50 µM | – | – | 81.5 °C | – | – | – | – | –
17 | Cc1cccc(C)c1CSc1nnc(Cn2nc(C)c(Br)c2C)o1 [Compound 40, 2-((4-bromo-3,5-dimethyl-1H-pyrazol-1-yl)methyl)-5-((2,6-dimethylbenzyl)thio)-1,3,4-oxadiazole] | – | – | – | – | – | 106.3 °C | > 50 µM | > 50 µM | – | – | –
18 | OC(c1cccc(-c2ccccc2)c1)c1nnc(Cc2ccc(Br)cc2)o1 (stereo not shown) [Compound 70, [1,1′-biphenyl]-3-yl(5-(4-bromobenzyl)-1,3,4-oxadiazol-2-yl)methanol] | – | – | – | – | – | 137.6 °C | > 50 µM | – | 37.5 µM | – | –
19 | Cc1nn(Cc2nnc(SCc3ccncc3-c3ccccc3)o2)c(C)c1Br [Compound 16, 2-((4-bromo-3,5-dimethyl-1H-pyrazol-1-yl)methyl)-5-(((3-phenylpyridin-4-yl)methyl)thio)-1,3,4-oxadiazole] | – | – | – | – | – | – | > 50 µM | – | > 50 µM | – | > 50 µM
20 | Cc1ccccc1CC1(c2nnc(Cc3ccc(Br)cc3)o2)CC1 [Compound 129, 2-(4-bromobenzyl)-5-(1-(2-methylbenzyl)cyclopropyl)-1,3,4-oxadiazole] | > 50 µM | > 50 µM | > 50 µM | – | 6.13 µM | 72.2 °C | – | – | – | – | –
21 | Cc1nn(C(=O)c2ccc(Oc3ccccc3C(C)C)o2)c(C)c1Br [Compound 57, (4-bromo-3,5-dimethyl-1H-pyrazol-1-yl)(5-(2-isopropylphenoxy)furan-2-yl)methanone] | – | – | – | – | – | 103.3 °C | > 50 µM | – | – | – | –
22 | Cc1cc(Nc2nnc(CCc3ccccc3C)o2)ccc1Br [Compound 90, N-(4-bromo-3-methylphenyl)-5-(2-methylphenethyl)-1,3,4-oxadiazol-2-amine] | > 50 µM | > 50 µM | > 50 µM | > 50 µM | > 50 µM | 122.7 °C | – | – | – | – | –
23 | Clc1ccc2oc(-c3nnc(Cc4ccc(Br)cc4)o3)cc2c1 [Compound 157, 2-(4-bromobenzyl)-5-(5-chlorobenzofuran-2-yl)-1,3,4-oxadiazole] | > 50 µM | > 50 µM | > 50 µM | – | – | 149.7 °C | – | – | – | – | –
24 | c1ccc(-c2ccccc2CSc2nnc(-c3cnn(-c4ccccc4)c3)o2)cc1 [Compound 36, 2-(([1,1′-biphenyl]-2-ylmethyl)thio)-5-(1-phenyl-1H-pyrazol-4-yl)-1,3,4-oxadiazole] | – | – | – | – | – | 114.2 °C | > 50 µM | – | > 50 µM | – | –
25 | CC(=Cc1ccccc1C)c1nnc(Cc2ccc(Br)cc2)o1 [Compound 138, 2-(4-bromobenzyl)-5-(1-(o-tolyl)prop-1-en-2-yl)-1,3,4-oxadiazole] | > 50 µM | > 50 µM | > 50 µM | 0.161 µM | – | – | – | – | – | – | –
26 | Cc1cccc(C)c1Nc1nnc(C(O)c2ccccc2)o1 (stereo not shown) [Compound 77, (5-((2,6-dimethylphenyl)amino)-1,3,4-oxadiazol-2-yl)(phenyl)methanol] | – | – | – | – | – | 179 °C | > 50 µM | – | – | – | –
